Values quoted from earlier work, collected in patent US7691599B2, “Mammalian genes involved in viral infection and tumor suppression” (Zirus, Inc., priority 2002, dated 2010).
Read-outs that look alike come from different tables or passages of the source.

Key:
[1] = for plasma concentration at 3 h: 3 h after single oral dose of 300 mg V11294A; for AUC(0, infinity) / t½ / Cmax: plasma; for AUC(0, infinity) / t½: single oral dose of 300 mg V11294A; for Cmax: single oral fasting dose of 300 mg V11294A, mean +/− s.d.
[2] = test system: mononuclear cell proliferation; settings: whole blood, 3 h (P<<0.05)
[3] = test system: tumour necrosis factor (TNF) release in whole blood
[4] = target: T1, I747T mutant NR3C1 (glucocorticoid receptor) (Homo sapiens, UniProt P04150, I747T)
T1 sequence (P04150 1-777 I747T): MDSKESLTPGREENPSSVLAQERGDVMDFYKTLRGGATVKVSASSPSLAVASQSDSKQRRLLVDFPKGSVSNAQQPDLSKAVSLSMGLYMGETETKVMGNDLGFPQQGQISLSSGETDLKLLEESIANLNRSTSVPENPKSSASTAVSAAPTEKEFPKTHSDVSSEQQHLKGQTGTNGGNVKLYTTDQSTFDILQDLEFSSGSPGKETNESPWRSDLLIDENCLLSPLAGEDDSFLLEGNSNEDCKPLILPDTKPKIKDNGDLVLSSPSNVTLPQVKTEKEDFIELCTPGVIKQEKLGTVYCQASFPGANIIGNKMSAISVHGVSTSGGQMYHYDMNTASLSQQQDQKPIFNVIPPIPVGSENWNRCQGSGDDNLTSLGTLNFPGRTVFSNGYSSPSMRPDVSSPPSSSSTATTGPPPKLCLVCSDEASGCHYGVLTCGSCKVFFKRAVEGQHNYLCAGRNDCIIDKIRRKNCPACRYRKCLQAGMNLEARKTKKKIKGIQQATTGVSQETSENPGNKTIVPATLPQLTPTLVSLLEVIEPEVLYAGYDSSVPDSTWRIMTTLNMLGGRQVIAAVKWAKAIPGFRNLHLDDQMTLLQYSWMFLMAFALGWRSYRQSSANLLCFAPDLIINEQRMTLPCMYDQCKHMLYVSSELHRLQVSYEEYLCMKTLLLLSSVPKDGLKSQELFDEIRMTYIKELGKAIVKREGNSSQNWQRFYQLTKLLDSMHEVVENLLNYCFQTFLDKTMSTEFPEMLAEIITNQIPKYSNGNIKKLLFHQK

monoamine oxidase type A = target: T2, monoamine oxidase type A (Mus musculus, UniProt Q64133); settings: transgenic mice with reduced glucocorticoid receptor function
T2 construct: from tissue; host or cells: whole animal: transgenic mice expressing antisense RNA against glucocorticoid receptor mRNA
T2 sequence (Q64133 1-526): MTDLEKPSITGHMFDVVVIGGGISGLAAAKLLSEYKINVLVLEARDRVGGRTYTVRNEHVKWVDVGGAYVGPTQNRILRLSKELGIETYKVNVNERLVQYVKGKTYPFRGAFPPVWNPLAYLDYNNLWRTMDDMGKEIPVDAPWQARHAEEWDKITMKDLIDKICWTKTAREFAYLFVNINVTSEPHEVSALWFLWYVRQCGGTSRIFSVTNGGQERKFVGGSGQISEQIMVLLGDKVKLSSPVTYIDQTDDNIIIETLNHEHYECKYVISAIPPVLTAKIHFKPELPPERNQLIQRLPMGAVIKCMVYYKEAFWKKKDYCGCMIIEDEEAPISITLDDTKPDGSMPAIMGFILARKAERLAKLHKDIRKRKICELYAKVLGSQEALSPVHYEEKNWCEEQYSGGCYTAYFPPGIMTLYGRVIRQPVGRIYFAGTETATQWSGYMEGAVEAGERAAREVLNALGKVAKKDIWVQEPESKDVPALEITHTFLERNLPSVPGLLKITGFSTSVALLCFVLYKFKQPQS

ADAM 10 = target: T3, ADAM 10 (Bos taurus, UniProt Q10741); settings: ADAM 10 purified from bovine spleen membranes
T3 construct: purified a protease with characteristics of TNFalpha convertase from bovine spleen membranes; from tissue; host or cells: bovine spleen membranes
T3 sequence (Q10741 214-748): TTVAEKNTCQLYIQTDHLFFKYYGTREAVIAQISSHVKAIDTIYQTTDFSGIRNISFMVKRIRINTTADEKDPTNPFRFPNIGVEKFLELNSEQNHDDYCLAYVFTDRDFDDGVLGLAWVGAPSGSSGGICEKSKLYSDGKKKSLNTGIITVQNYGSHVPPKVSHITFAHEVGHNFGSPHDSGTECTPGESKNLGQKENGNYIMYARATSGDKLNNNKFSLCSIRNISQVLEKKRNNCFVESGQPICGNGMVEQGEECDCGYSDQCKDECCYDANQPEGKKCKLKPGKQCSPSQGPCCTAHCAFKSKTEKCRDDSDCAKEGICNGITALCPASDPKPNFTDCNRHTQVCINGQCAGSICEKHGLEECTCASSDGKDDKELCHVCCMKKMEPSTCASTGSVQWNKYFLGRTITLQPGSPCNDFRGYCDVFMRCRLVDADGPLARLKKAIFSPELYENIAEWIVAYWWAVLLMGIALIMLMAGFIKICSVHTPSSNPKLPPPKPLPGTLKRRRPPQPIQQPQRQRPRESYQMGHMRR

plasma concentration at 3 h [1] [ng/mL] | AUC(0, infinity) [1] [ng·h/mL] | t½ [1] [h] | Cmax ([1]; healthy volunteers) [ng/mL] | SMILES | transactivation by I747T mutant NR3C1 [4] | further results
860 ± 300 | 18600 ± 8500 | 9.5 ± 1.7 | 1000 ± 400 | COc1ccc(Cn2cnc(N)c3nc(C(C)C)nc2-3)cc1OC1CCCC1 [V10332, 3-(3-cyclopentyloxy-4-methoxy-benzyl)-8-isopropyl-3H-purin-6-ylamine] | – | –
1300 ± 330 | 18100 ± 6100 | 9.7 ± 3.9 | 1398 ± 298 | CCNc1ncn(Cc2ccc(OC)c(OC3CCCC3)c2)c2nc(C(C)C)nc1-2.Cl [V11294A, 3-(3-cyclopentyloxy-4-methoxybenzyl)-6-ethylamino-8-isopropyl-3H purine hydrochloride] | – | PHA-induced proliferation [2]: inhibited; adverse reactions ([1]; single oral administration, 300 mg, healthy volunteers): No adverse reactions were noted; LPS-induced TNF release ([3]; 3 h post ingestion (P<<0.001)): significant reduction; LPS-induced TNF release ([3]; 24 h post ingestion (P<<0.05)): significant reduction; amount of TNF released in response to LPS ([3]; LPS 4 ng ml−1, whole blood, 3 h postdose (before 778+/−87, P=0.02)): 566 ± 72 pmol/mL
– | – | – | – | C[C@]12C[C@H](O)[C@H]3[C@@H](CCC4=CC(=O)CC[C@@]43C)[C@@H]1CC[C@@H]2C(=O)CO [corticosterone] | completely inactive | –
– | – | – | – | C[C@]12CCC(=O)C=C1CC[C@@H]1[C@@H]2[C@@H](O)C[C@@]2(C)[C@H]1CC[C@]2(O)C(=O)CO [cortisol] | completely inactive | –
– | – | – | – | O=C(NCCN1CCOCC1)c1ccc(Cl)cc1 [moclobemide] | – | behavioral deficits (monoamine oxidase type A): reversed the behavioral deficits
– | – | – | – | CC(C)C[C@H](NP(=O)(O)O[C@@H]1O[C@@H](C)[C@H](O)[C@@H](O)[C@H]1O)C(=O)N[C@@H](Cc1c[nH]c2ccccc12)C(=O)O [phosphoramidon] | – | sensitivity of the enzyme to inhibitor (ADAM 10): insensitive
